The record followed here is patent US7767681B2, “2-Carbamide-4-phenylthiazole derivatives, preparation thereof and therapeutic use thereof” (sanofi-aventis, priority 2004, dated 2010).

In one data set the test system is HIV-1 Bal virus. Description: Inhibitory activity on PBMCs infected with HIV-1 Bal (reverse transcriptase in supernatant). The format is cell-based. The conditions noted are these: compounds in culture medium for 5 days, read-out: IC50 viral replication (amount of reverse transcriptase in the supernatant). As for the experimental part: The inhibitory activity of the compounds according to the invention was also measured on PBMCs (peripheral blood mononuclear cells) infected with the HIV-1 Bal virus, according to a technique adapted from that described by V. Dolle et al., J. Med. Chem., 2000, 43, 3949, 3962. According to this technique, the PBMCs are infected with HIV-1 Bal and the compounds to be tested are then added to the culture medium for 5 days. At the end of this exposure, the amount of reverse transcriptase in the supernatant is measured, which correlates with the level of viral replication in the cells.

The next data set addresses T1, human CCR2b receptor (Homo sapiens, UniProt P41597).
T1 sequence (P41597 1-360 isoform P41597-2): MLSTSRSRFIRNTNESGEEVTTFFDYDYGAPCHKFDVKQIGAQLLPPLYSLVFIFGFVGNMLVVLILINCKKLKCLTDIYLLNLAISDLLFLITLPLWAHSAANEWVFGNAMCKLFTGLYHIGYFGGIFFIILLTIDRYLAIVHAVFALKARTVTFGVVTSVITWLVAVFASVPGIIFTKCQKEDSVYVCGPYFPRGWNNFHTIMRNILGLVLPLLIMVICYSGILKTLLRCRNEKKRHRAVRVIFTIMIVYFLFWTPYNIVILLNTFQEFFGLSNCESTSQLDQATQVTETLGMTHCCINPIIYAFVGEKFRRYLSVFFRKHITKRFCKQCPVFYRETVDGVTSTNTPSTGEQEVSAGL
As to the kind of experiment: Inhibitory activity on cells expressing the human CCR2b receptor. The format is cell-based. As to the method: The inhibitory activity of the compounds according to the invention on cells expressing the human CCR2b receptor was measured.

Data set [1] deals with human THP-1 monocyte cells. Description: Inhibition of chemotaxis on human THP-1 monocyte cells. The format is cell-based. The following applies: read-out: IC50 inhibition of chemotaxis (hMCP-1). As for the experimental part: The inhibition of chemotaxis was also measured on human THP-1 monocyte cells (sold by DSMZ—Germany), using a technique adapted from that described by A. Albini et al., Cancer Res., 1987, 47, 3239-3245.
The inhibition of chemotaxis by the compounds according to the invention is a sign of their antagonistic activity on chemokine receptors, and in particular the CCR2b receptor.

[2] abbreviates: read-out: IC50 of the activity of the CCR2b receptor.

Counter-ions that a name gives are not always drawn. Like-named read-outs stand apart in the source and are kept apart here.

Regarding `CCCc1ccc(OC)c(-c2csc(NC(=O)N3CCN(CCCN(CC)CC)CC3)n2)c1` (as salt: HCl) [Compound No. 14], the melting point (commonly the temperature, or range, at which the solid turns liquid) is 145 °C.

Turning to `Cc1cn([C@H]2C[C@H](N=[N+]=[N-])[C@@H](CO)O2)c(=O)[nH]c1=O` [AZT], the IC50 (commonly the concentration that inhibits the measured activity by half) with HIV-1 Bal virus is < 1000 nM. In the case of `CCCc1ccc(OC)c(-c2csc(NC(=O)N3CCN(CCCN(CC)CC)CC3)n2)c1` [Compound No. 14], the IC50 at human CCR2b receptor (setting [2]) worked out at 3.3 nM. Turning to `COc1ccc(C2CCCC2)cc1-c1csc(NC(=O)N2CCN(CC3CCN(C)CC3)CC2)n1` [Compound No. 55], the melting point was determined as 102 °C. Moreover, the concentration for half-maximal inhibition (IC50) at human CCR2b receptor (setting [2]) is 14 nM. Turning to “hMCP-1: human monocyte chemotactic protein, CC chemokine, natural agonist of the CCR2b receptor [reference compound]”, the IC50 is 0.57 nM in the data set with human CCR2b receptor (read-out: IC50 of the activity of the CCR2b receptor (natural agonist hMCP-1)) and 6 nM in data set [1].
